In patent US20050250835A1, “Novel tumor-selective chemotherapeutic agents” (priority 2004, published 2005):
Read-outs that look alike come from different tables or passages of the source. One block for each molecule: values may come before it.

Key:
various tumors = settings: cited from earlier work
[1] = one patient with liver cancer, 40 microg/m^2, one cycle (days 1-5); cited from earlier work
various cancer cells = various cancer cells in vitro, 1 h exposure (Ghielmini et al. 1997); cited from earlier work
[2] = tested on: SKOV-3 human ovarian cancer; experiment: SKOV-3 human ovarian cancer xenograft; assay type: in vivo, CD1 nude mice
Procedure: Ovarian cancer is one of the most difficult to treat human cancers, and very few drugs are effective. YW-391 had significant activity in SKOV-3 human ovarian cancer xenograft (FIG. 8 and Table 9). […] [table] treated animals. YW-391 and doxorubicin were administered iv., and paclitaxel was administered ip. Equivalents

JC breast adenocarcinoma = JC breast adenocarcinoma in mice; assay type: in vivo, Balb/c mice
Procedure: (§1) JC is an epithelial-like cell line established in 1983 from a spontaneous primary adenocarcinoma along the milk line (Capone et al., Cancer Immuno. Immunother. 1987, 25, 93-9). It produces tumors with papillary adenocarcinoma morphology in BALB/c mice. […] At the lowest dose of 0.16 mg/kg, (+)-YW-391 (LCK: 1.5) killed 10-times more tumor cells than Dox at 8 mg/kg (LCK: 0.78). (+)-YW-391 has the potential to be a powerful new treatment for human breast cancer.

colon 38 adenocarcinoma = experiment: Colon 38 adenocarcinoma in mice; assay type: in vivo, BDF1 mice
Lewis lung carcinoma = Lewis lung carcinoma in mice
L1210 leukemia = L1210 leukemia tumor model in mice
[3] = JC breast adenocarcinoma in mice; assay type: in vivo, Balb/c mice; settings: BALB/c, mouse, in vivo, intravenous, 8 mg/kg; mice bearing JC
Procedure: as §1

[4] = tested on: MDA-MB 435 human breast cancer; settings: cited from earlier work
[5] = tested on: mouse renal RENCA, human breast cancers MDA-MB 435 and MCF-7; settings: three animal tumor models; cited from earlier work
endogenous albumin = molecular target: T1, endogenous albumin (Homo sapiens, UniProt P02768); settings: human blood plasma; cited from earlier work
T1 construct: selectivity of Dox-MH for endogenous albumin, Dox-MH was incubated with human blood plasma; from tissue; host or cells: human blood plasma
T1 sequence (P02768 25-609): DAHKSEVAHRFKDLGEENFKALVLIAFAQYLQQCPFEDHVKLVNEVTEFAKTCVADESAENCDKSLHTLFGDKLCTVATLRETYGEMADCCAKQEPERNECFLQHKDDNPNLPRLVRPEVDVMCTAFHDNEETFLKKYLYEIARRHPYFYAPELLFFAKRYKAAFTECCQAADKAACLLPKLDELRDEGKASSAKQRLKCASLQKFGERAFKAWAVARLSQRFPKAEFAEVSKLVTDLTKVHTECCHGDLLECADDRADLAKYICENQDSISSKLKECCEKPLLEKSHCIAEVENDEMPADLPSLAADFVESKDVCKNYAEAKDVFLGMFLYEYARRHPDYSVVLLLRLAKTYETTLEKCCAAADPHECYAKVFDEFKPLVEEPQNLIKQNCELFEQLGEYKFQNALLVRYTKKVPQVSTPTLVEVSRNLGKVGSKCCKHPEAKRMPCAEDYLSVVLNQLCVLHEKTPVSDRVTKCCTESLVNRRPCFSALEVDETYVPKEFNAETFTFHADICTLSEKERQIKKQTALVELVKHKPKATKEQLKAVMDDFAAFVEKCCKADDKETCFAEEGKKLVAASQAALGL

HSA = HSA (Homo sapiens, UniProt P02768); settings: exogenously added HSA; cited from earlier work
Sequence of HSA (P02768 25-609): as above

L1210 leukemia cells = experiment: Anticancer activity in vitro, 3H-thymidine incorporation; assay type: cell-based, murine; settings: Mus musculus, 48-h proliferation assay, 3H-thymidine uptake, mean of two experiments
[6] = 0.2 mg/kg i.v. on days 1, 5, 12
[7] = 3.0 mg/kg i.v. on days 1, 5, 12

SMILES: Cc1c[nH]c2c1[C@@]13C[C@@H]1CN(C(=O)c1cc4cc(NC(=O)c5cc6ccccc6o5)ccc4[nH]1)C3=CC2=O [Adozelesin, adozelesin]
- antitumor activity in vivo (various tumors; L1210 leukemia, B16 melanoma, M5076 sarcoma, colon 38, colon CX-1, lung LX-1, pancreas 02, ovarian 2780 in mice (Li et al. 1991)): very active

SMILES: CCN(CC)c1ccc2cc(C(=O)Nc3ccc4[nH]c(C(=O)N5C[C@@H](CCl)c6c5cc(OC(=O)Nc5ccccc5)c5[nH]cc(C)c65)cc4c3)oc2c1 [Carzelesin, carzelesin]
- duration of partial remission [1]: 8 months
- regression of primary liver cancer [1]: 50%
- antitumor activity in vivo (various tumors; several colon adenocarcinomas and pediatric rhabdomyosarcomas (Houghton et al. 1995)): effective
- average IC70 value (various cancer cells): 0.23 ng/mL

- % Maximum weight loss ([2]; 25 mg/kg ip. on days 15, 24, 33): −1%
SMILES: CC(=O)O[C@H]1C(=O)[C@@]2(C)[C@H]([C@H](OC(=O)c3ccccc3)[C@]3(O)C[C@H](OC(=O)[C@H](O)[C@@H](NC(=O)c4ccccc4)c4ccccc4)C(C)=C1C3(C)C)[C@]1(OC(C)=O)CO[C@@H]1C[C@@H]2O [Paclitaxel, paclitaxel]

SMILES: O=C(CCCCCN1C(=O)C=CC1=O)Oc1cc2c(c3ccccc13)[C@H](CCl)CN2C(=O)c1cc2cc(NC(=O)c3cc4cc(F)ccc4[nH]3)ccc2[nH]1 [(+)-YW-391]
- tumor cells killed relative to Dox at 8 mg/kg (JC breast adenocarcinoma; 0.16 mg/kg (LCK 1.5) versus Dox 8 mg/kg (LCK 0.78)): 10 times
- TGI (JC breast adenocarcinoma; at MTD, dose not given): 98%
- % Maximum weight loss ([2]; 0.13 mg/kg iv. on days 15, 24, 33): −3%
- tumor cells killed relative to 5-FU at 70 mg/kg (colon 38 adenocarcinoma; 0.15 mg/kg (LCK 2.3) versus 5-FU 70 mg/kg (LCK 1.1)): 10 times
- % Maximum weight loss (colon 38 adenocarcinoma; 0.3 mg/kg q4d × 2 i.v.): −25%
- % Maximum weight loss (Lewis lung carcinoma; [6]): −17%
- Log10 cell kill (LCK) (Lewis lung carcinoma; [6]): 0.75
- TGIs (Lewis lung carcinoma; no dose given): 98%
- % ILS (L1210 leukemia; 0.05 mg/kg i.v. on day 1): 40%
- % ILS (L1210 leukemia; 0.1 mg/kg i.v. on day 1): 51%

SMILES: Cc1c[nH]c2c(O)cc3c(c12)[C@H](CCl)CN3C(=O)c1cc2cc(NC(=O)Nc3ccc4[nH]c(C(=O)N5C[C@@H](CCl)c6c5cc(O)c5[nH]cc(C)c65)cc4c3)ccc2[nH]1 [Bizelesin, bizelesin]
- antitumor activity in vivo (various tumors; P388, L1210, B16, UACC-62, LOX IMVI, SK-MEL-3, CAKI-1, LX-1, Lewis lung, HT-29, colon 38, pancreas 02, MCF7, MX-1 (Carter et al. 1996)): effective

SMILES: COC(=O)c1c(C)[nH]c2c(OC(=O)N3CCN(C)CC3)cc3c(c12)[C@H](CBr)CN3C(=O)c1cc2cc(OC)c(OC)c(OC)c2[nH]1 [KW-2189]
- antitumor activity in vivo (various tumors; P388, L1210, B16, colon 26, colon 38, LC-6, ST-4, ST-40, LI-7, PAN-02, MX-1 (Kobayashi et al. 1994)): active

SMILES: COc1cccc2c1C(=O)c1c(O)c3c(c(O)c1C2=O)C[C@@](O)(C(=O)CO)C[C@@H]3O[C@H]1C[C@H](N)[C@H](O)[C@H](C)O1 [Doxorubicin, doxorubicin]
- % Maximum weight loss (JC breast adenocarcinoma; 8.0 mg/kg q4d × 3 i.v.): −25%
- % Tumor growth inhibition (JC breast adenocarcinoma; 8.0 mg/kg q4d × 3 i.v.): 82%
- Log10 cell kill (LCK) (JC breast adenocarcinoma; 8.0 mg/kg q4d × 3 i.v.): 0.78
- MTD [3]: 8 mg/kg
- % Maximum weight loss ([2]; 5 mg/kg iv. on days 15, 24, 33): −4%
- % Tumor growth inhibition ([2]; 5 mg/kg iv. on days 15, 24, 33): 39%
- antitumor response ([4]; free Dox): modest antitumor activity
- body weight loss ([4]; treatment with free Dox): about 10%
- % ILS (L1210 leukemia; 10.0 mg/kg i.v. on day 1): 85%

SMILES: COc1cccc2c1C(=O)c1c(O)c3c(c(O)c1C2=O)C[C@@](O)(/C(CO)=N/NC(=O)CCCCCN1C(=O)C=CC1=O)C[C@@H]3O[C@H]1C[C@H](N)[C@H](O)[C@H](C)O1 [Dox-MH]
- body weight change ([4]; after 24 days of drug administration): did not produce an overall change in body weight
- antitumor response ([4]; optimal dose 3×39.3 umol/kg (3×23 mg/kg)): complete remissions
- antitumor efficacy and toxicity versus free doxorubicin [5]: distinctly superior to free doxorubicin
- time by which all of the Dox-MH had reacted (endogenous albumin): ≤ 90 min
- time by which all of the Dox-MH had reacted (HSA): ≤ 90 min
- time within which majority of the Dox-MH reacted with HSA (HSA): ≤ 5 min

SMILES: O=C(CCCCCN1C(=O)C=CC1=O)Oc1cc2c(c3ccccc13)[C@H](CCl)CN2C(=O)c1cc2cc(NC(=O)c3cc4ccccc4o3)ccc2[nH]1 [(+)-YW-392]
- IC50 (L1210 leukemia cells): 31 nM

SMILES: N.N.[Cl][Pt][Cl] [Cisplatin, cisplatin]
- % Maximum weight loss (Lewis lung carcinoma; [7]): −13%
- % Tumor growth inhibition (Lewis lung carcinoma; [7]): 74%
- Log10 cell kill (LCK) (Lewis lung carcinoma; [7]): 0.45
